Reference: patent US20240360146A1, “BRUTON'S TYROSINE KINASE AND MUTANT DEGRADER, COMPOSITION AND APPLICATION THEREOF” (HANGZHOU HEALZEN THERAPEUTICS CO., LTD., priority 2021, published 2024)

How the values were obtained:
BTK = target: T1, BTK (Homo sapiens, UniProt Q06187); experiment: BTK degradation activity test in Mino cells; type: cell-based; conditions: 16 h incubation, Western blot or Elisa
T1 construct: endogenous in cells; host or cells: Mino cells
Procedure, shortened: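 DC50 derived by curve fitting of BTK degradation rates versus untreated control across compound concentrations. Mino cells were exposed for 16 h; BTK levels in lysates, normalised via BCA protein, measured by Western blot or ELISA.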

Mino cells = experiment: Inhibitory activity on Mino cell proliferation (MTS); type: cell-based; conditions: Homo sapiens, 168 h incubation
Experimental: The anti-tumor efficacy of the compounds was tested by measuring their inhibitory effects on OCI-LY10 and Mino cell proliferation. OCI-LY10 and Mino cells were cultured in RPMI-1640 medium containing 10% fetal calf serum. OCI-LY10 and Mino cells were digested, inoculated in a 96-well plate at a cell concentration of 10000 cells/well, and incubated overnight at 37° C., 5% CO2. Compounds of different concentrations (1000 nM, 4-fold dilution, 8 points) were added to the 96-well plate and incubated for 72 h (LY10) or 168 h (Mino) at 37° C. and 5% CO2, and then 20 uL of MTS was added to each well. After incubation for 2 h, 25 μl of 10% SDS was added to each well to terminate the reaction. The absorbance at 490 nm and 650 nm were measured with a microplate reader. IC50 was calculated using GraphPad Prism 5.0.

T1 sequence (Q06187 whole entry): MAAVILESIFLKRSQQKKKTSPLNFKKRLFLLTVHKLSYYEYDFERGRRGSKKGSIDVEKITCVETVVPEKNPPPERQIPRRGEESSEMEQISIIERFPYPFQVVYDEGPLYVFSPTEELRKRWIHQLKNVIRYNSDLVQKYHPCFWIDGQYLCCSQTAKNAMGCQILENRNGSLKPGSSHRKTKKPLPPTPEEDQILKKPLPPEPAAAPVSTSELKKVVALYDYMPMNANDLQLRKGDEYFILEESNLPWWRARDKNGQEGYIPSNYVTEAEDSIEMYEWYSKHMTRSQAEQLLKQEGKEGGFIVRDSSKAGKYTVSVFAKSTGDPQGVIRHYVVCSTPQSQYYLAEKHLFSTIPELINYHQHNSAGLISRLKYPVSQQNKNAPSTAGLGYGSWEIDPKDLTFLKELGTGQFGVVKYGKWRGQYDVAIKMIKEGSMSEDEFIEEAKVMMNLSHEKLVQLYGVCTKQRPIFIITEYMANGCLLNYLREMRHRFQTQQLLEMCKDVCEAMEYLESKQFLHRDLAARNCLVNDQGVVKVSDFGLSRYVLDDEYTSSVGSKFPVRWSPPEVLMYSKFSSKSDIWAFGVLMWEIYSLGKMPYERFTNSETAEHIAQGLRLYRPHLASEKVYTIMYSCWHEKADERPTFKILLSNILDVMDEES

Row | Compound | DC50 (BTK) [nM] | IC50 (Mino cells) [nM]
1 | CN1CCN([C@@H]2CCCN(c3nnc(C(N)=O)c(Nc4ccc(N5CCN(CC6CCN(c7ccc(N8CCC(=O)NC8=O)c8[nH]cnc78)CC6)CC5)c(F)c4)n3)C2)C1=O [Compound 192, (R)-5-((4-(4-((1-(7-(2,4-dioxotetrahydropyrimidin-1(2H)-yl)-1H-benzo[d]imidazol-4-yl)piperidin-4-yl)methyl)piperazin-1-yl)-3-fluorophenyl)amino)-3-(3-(3-methyl-2-oxoimidazolidin-1-yl)piperidin-1-yl)-1,2,4-triazin-6-carboxamide] | < 1 | 2.41
2 | CN1CCN([C@@H]2CCCN(c3nnc(C(N)=O)c(Nc4ccc(N5CCN(CC6CCN(c7ccc(C(=O)NC8CCC(=O)NC8=O)c8c7OCCO8)CC6)CC5)c(F)c4)n3)C2)C1=O (stereo partly drawn) [Compound 183, 5-((4-(4-((1-(8-((2,6-dioxopiperidin-3-yl)carbamoyl)-2,3-dihydrobenzo[b][1,4]dioxan-5-yl)piperidin-4-yl)methyl)piperazin-1-yl)-3-fluorophenyl)amino)-3-((R)-3-(3-methyl-2-oxoimidazolidin-1-yl)piperidin-1-yl)-1,2,4-triazin-6-carboxamide] | < 1 | 4.85
3 | CN1C(=O)N(C2CCCN(c3cnc(C(N)=O)c(Nc4ccc(C5(C)CCN(C6CN(c7ccc8c(c7)C(=O)N(C7CCC(=O)NC7=O)C8=O)C6)CC5)cc4)n3)C2)CC12CCC2 (centres unmarked) [Compound 011, 3-((4-(1-(1-(2-(2,6-dioxopiperidin-3-yl)-1,3-dioxoisoindol-5-yl)azetidin-3-yl)-4-methylpiperidin-4-yl)phenyl)amino)-5-(3-(5-methyl-6-oxo-5,7-diazaspirocyclo[3.4]octan-7-yl)piperidin-1-yl)pyrazin-2-carboxamide] | < 1 | 
4 | CN1CCN([C@@H]2CCCN(c3nnc(C(N)=O)c(Nc4ccc(N5CCN(CC6CCN(c7ccc(N8CCC(=O)NC8=O)c8ocnc78)CC6)CC5)c(F)c4)n3)C2)C1=O [Compound 191, (R)-5-((4-(4-((1-(7-(2,4-dioxotetrahydropyrimidin-1(2H)-yl)benzo[d]oxazol-4-yl)piperidin-4-yl)methyl)piperazin-1-yl)-3-fluorophenyl)amino)-3-(3-(3-methyl-2-oxoimidazolidin-1-yl)piperidin-1-yl)-1,2,4-triazin-6-carboxamide] | < 1 | 8.47
5 | CN1C(=O)N(C2CCCN(c3nnc(C(N)=O)c(Nc4ccc(C5CCN(CC6CCN(c7ccc8c(c7)C(=O)N(C7CCC(=O)NC7=O)C8=O)CC6)CC5)cc4)n3)C2)CC12CCC2 (centres unmarked) [Compound 069, 5-((4-(1-((1-(2-(2,6-dioxopiperidin-3-yl)-1,3-dioxoisoindol-5-yl)piperidin-4-yl)methyl)piperidin-4-yl)phenyl)amino)-3-(3-(5-methyl-6-oxo-5,7-diazaspirocyclo[3.4]octan-7-yl)piperidin-1-yl)-1,2,4-triazin-6-carboxamide] | < 1 | 
6 | CC(C)c1cc(N2CCC(CN3CCN(c4ccc(Nc5nc(N6CCC[C@@H](N7CCN(C)C7=O)C6)nnc5C(N)=O)cc4F)CC3)CC2)ccc1N1CCC(=O)NC1=O [Compound 189, (R)-5-((4-(4-((1-(4-(2,4-dioxotetrahydropyrimidin-1(2H)-yl)-3-isopropylphenyl)piperidin-4-yl)methyl)piperazin-1-yl)-3-fluorophenyl)amino)-3-(3-(3-methyl-2-oxoimidazolidin-1-yl)piperidin-1-yl)-1,2,4-triazin-6-carboxamide] | < 1 | 5.45
7 | CN1CCN([C@@H]2CCCN(c3nnc(C(N)=O)c(Nc4ccc(N5CCN(CC6CCN(c7ccc(NC8CCC(=O)NC8=O)cc7)CC6)CC5)c(F)c4)n3)C2)C1=O (stereo partly drawn) [Compound 253, 5-((4-(4-((1-(4-((2,6-dioxopiperidin-3-yl)amino)phenyl)piperidin-4-yl)methyl)piperazin-1-yl)-3-fluorophenyl)amino)-3-((R)-3-(3-methyl-2-oxoimidazolidin-1-yl)piperidin-1-yl)-1,2,4-triazin-6-carboxamide] | < 1 | 

Continued, in another order:

Row | DC50 (BTK) [nM] | Compound | IC50 (Mino cells) [nM]
8 | < 1 | CN1CCN([C@@H]2CCCN(c3nnc(C(N)=O)c(Nc4ccc(N5CCN(CC6CCN(c7ccc8c(c7)n(C)c(=O)n8C7CCC(=O)NC7=O)CC6)CC5)c(F)c4)n3)C2)C1=O (stereo partly drawn) [Compound 219, 5-((4-(4-((1-(1-(2,6-dioxopiperidin-3-yl)-3-methyl-2-oxo-2,3-dihydro-H-benzo[d]imidazol-5-yl)piperidin-4-yl)methyl)piperazin-1-yl)-3-fluorophenyl)amino)-3-((R)-3-(3-methyl-2-oxoimidazolidin-1-yl)piperidin-1-yl)-1,2,4-triazin-6-carboxamide] | 2.74
9 | < 1 | CN1CCN([C@@H]2CCCN(c3nnc(C(N)=O)c(Nc4ccc(N5CCN(CC6CCN(c7ccc(N8CCC(=O)NC8=O)c(C(F)F)c7)CC6)CC5)c(F)c4)n3)C2)C1=O [Compound 188, (R)-5-((4-(4-((1-(3-(difluoromethyl)-4-(2,4-dioxotetrahydropyrimidin-1(2H)-yl)phenyl)piperidin-4-yl)methyl)piperazin-1-yl)-3-fluorophenyl)amino)-3-(3-(3-methyl-2-oxoimidazolidin-1-yl)piperidin-1-yl)-1,2,4-triazin-6-carboxamide] | 5.55
10 | < 1 | CN1CCN([C@@H]2CCCN(c3nnc(C(N)=O)c(Nc4ccc(N5CCN(CC6CCN(c7ccc(C(=O)NC8CCC(=O)NC8=O)c(F)c7F)CC6)CC5)c(F)c4)n3)C2)C1=O (stereo partly drawn) [Compound 182, 5-((4-(4-((1-(4-((2,6-dioxopiperidin-3-yl)carbamoyl)-2,3-difluorophenyl)piperidin-4-yl)methyl)piperazin-1-yl)-3-fluorophenyl)amino)-3-((R)-3-(3-methyl-2-oxoimidazolidin-1-yl)piperidin-1-yl)-1,2,4-triazin-6-carboxamide] | 3.19
11 | < 1 | CN1CCN([C@@H]2CCCN(c3nnc(C(N)=O)c(Nc4ccc(N5CCN(CC6CCN(c7ccc(NC8CCC(=O)NC8=O)c8c7OCO8)CC6)CC5)c(F)c4)n3)C2)C1=O (stereo partly drawn) [Compound 209, 5-((4-(4-((1-(7-((2,6-dioxopiperidin-3-yl)amino)benzo[d][1,3]dioxacyclopent-4-yl)piperidin-4-yl)methyl)piperazin-1-yl)-3-fluorophenyl)amino)-3-((R)-3-(3-methyl-2-oxoimidazolidin-1-yl)piperidin-1-yl)-1,2,4-triazin-6-carboxamide] | 3.42
12 | < 1 | CN1CCN([C@@H]2CCCN(c3nnc(C(N)=O)c(Nc4ccc(N5CCN(CC6CCN(c7ccc(NC8CCC(=O)NC8=O)c8ocnc78)CC6)CC5)c(F)c4)n3)C2)C1=O (stereo partly drawn) [Compound 210, 5-((4-(4-((1-(7-((2,6-dioxopiperidin-3-yl)amino)benzo[d]oxazol-4-yl)piperidin-4-yl)methyl)piperazin-1-yl)-3-fluorophenyl)amino)-3-((R)3-(3-methyl-2-oxoimidazolidin-1-yl)piperidin-1-yl)-1,2,4-triazin-6-carboxamide] | 2.33
13 | < 1 | CN1CCN([C@@H]2CCCN(c3nnc(C(N)=O)c(Nc4ccc(N5CCN(C[C@@H]6CCN(c7ccc(N8CCC(=O)NC8=O)cc7)C6)CC5)c(F)c4)n3)C2)C1=O [Compound 152, 5-((4-(4-(((S)-1-(4-(2,4-dioxotetrahydropyrimidin-1(2H)-yl)phenyl)pyrrolidin-3-yl)methyl)piperazin-1-yl)-3-fluorophenyl)amino)-3-((R)-3-(3-methyl-2-oxoimidazolin-1-yl)piperidin-1-yl)-1,2,4-triazin-6-carboxamide] | 2.8
14 | < 1 | CN1CCN([C@@H]2CCCN(c3nnc(C(N)=O)c(Nc4ccc(N5CCN(CC6CCN(c7ccc8c(C9CCC(=O)NC9=O)nn(C)c8c7)CC6)CC5)c(F)c4)n3)C2)C1=O (stereo partly drawn) [Compound 213, 5-((4-(4-((1-(3-(2,6-dioxopiperidin-3-yl)-1-methyl-1H-indazol-6-yl)piperidin-4-yl)methyl)piperazin-1-yl)-3-fluorophenyl)amino)-3-((R)-3-(3-methyl-2-oxoimidazolidin-1-yl)piperidin-1-yl)-1,2,4-triazin-6-carboxamide] | 7.64
15 | < 1 | CN1CCN([C@@H]2CCCN(c3nnc(C(N)=O)c(Nc4ccc(N5CCN(CC6CCN(c7ccc(N8CCC(=O)NC8=O)cc7F)CC6)CC5)c(F)c4)n3)C2)C1=O [Compound 186, (R)-5-((4-(4-((1-(4-(2,4-dioxotetrahydropyrimidin-1(2H)-yl)-2-fluorophenyl)piperidin-4-yl)methyl)piperazin-1-yl)-3-fluorophenyl)amino)-3-(3-(3-methyl-2-oxoimidazolidin-1-yl)piperidin-1-yl)-1,2,4-triazin-6-carboxamide] | 2.26
16 | < 1 | CN1CCN([C@@H]2CCCN(c3nnc(C(N)=O)c(Nc4ccc(N5CCN(CC6CCN(c7ccc(N8CCC(=O)NC8=O)c(C(F)(F)F)c7)CC6)CC5)c(F)c4)n3)C2)C1=O [Compound 187, (R)-5-((4-(4-((1-(4-(2,4-dioxotetrahydropyrimidin-1(2H)-yl)-3-(trifluoromethyl)phenyl)piperidin-4-yl)methyl)piperazin-1-yl)-3-fluorophenyl)amino)-3-(3-(3-methyl-2-oxoimidazolidin-1-yl)piperidin-1-yl)-1,2,4-triazin-6-carboxamide] | 2.07
